Literature values, collected in patent publication US20130129827A1, “EXTENDED RELEASE PHARMACEUTICAL COMPOSITIONS OF PALIPERIDONE AND PROCESSES OF PREPARATION THEREOF” (RANBAXY LABORATORIES LIMITED, priority 2009, published 2013).

Conditions: background statement, species not given

- half-life: about a day
SMILES: Cc1nc2n(c(=O)c1CCN1CCC(c3noc4cc(F)ccc34)CC1)CCCC2O (racemic) [Paliperidone, (±)-3-[2-[4-(6-fluoro-1,2-benzisoxazol-3-yl)-1-piperidinyl]ethyl]-6,7,8,9-tetrahydro-9-hydroxy-2-methyl-4H-pyrido[1,2-a]pyrimidin-4-one]
